tested on: genotype 1/2 chimeric cell culture derived HCV (HCVcc); assay: Genotype 1/2 chimeric HCVcc assay (nano-luciferase, HCV replication); assay type: cell-based; settings: Hepatitis C virus
Summary of the method: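 Huh-7.5 cells (2400/well) pretreated 2 h with serially diluted compound, then infected with nano-luciferase genotype 1a/2a (JFH-1) chimeric HCVcc. At 72 h post infection, nano-luciferase reported replication and cellular ATP reported cytotoxicity; EC50 and CC50 by non-linear regression.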

O=C(NCCCN1CCC(N2CCCCC2)CC1)c1ccc(-c2ccc3c(c2)OCO3)cc1 [Compound 1130] and O=C(NCCCN1CCC(N2CCCCC2)CC1)c1ccc(-c2cccc(Cl)c2)cc1 [Compound 1141] fall in the same range of EC50: 100 to 1000 nM for the first, 100 to 1000 nM for the second.

O=C(NCCCN1CCC(N2CCCC2)CC1)c1ccc(Oc2ccccc2)cc1 [Compound 1067] and O=C(NCCCCN1CCC(N2CCCCC2)CC1)c1ccc(Oc2ccccc2)cc1 [Compound 1045] fall in the same range of EC50: 100 to 1000 nM for the first, 100 to 1000 nM for the second.

Compared with O=C(NCCC(=O)N1CCC(N2CCCCC2)CC1)c1ccc(Oc2ccccc2)cc1 [Compound 1053], O=C(c1ccc(Oc2ccccc2)cc1)N1CCC(C(=O)N2CCC(N3CCCCC3)CC2)C1 (stereo not drawn) [Compound 1054] is higher in EC50: 1000 to 10000 nM for the first, greater than 10000 nM for the second. The first is the more potent here.

Compared with O=C(NCCCN1CCC(N2CCCCC2)CC1)c1ccc(Oc2ccc(C(F)(F)F)cc2)cc1 [Compound 1111], COc1ccc(-c2ccc(C(=O)NCCCN3CCC(N4CCCCC4)CC3)cc2)cc1 [Compound 1022] is lower in EC50: 100 to 1000 nM for the first, less than 100 nM for the second.

First: CC(=O)Nc1ccc(-c2ccc(C(=O)NCCCN3CCC(N4CCCCC4)CC3)cc2)cc1 [Compound 1140]
Second: O=C(NCCCN1CCC(N2CCCCC2)CC1)c1ccc(-c2ccc(O)cc2)cc1 [Compound 1127]
The EC50 of the first is higher: greater than 10000 nM for the first, 1000 to 10000 nM for the second. The second is the more potent here.

First: CN(C)C1CCN(CCCNC(=O)c2ccc(Oc3ccccc3)cc2)CC1 [Compound 1068]
Second: O=C(NCCCN1CCN(C(=O)c2ccccc2)CC1)c1ccc(Oc2ccccc2)cc1 [Compound 1039]
The EC50 of the first is lower: 100 to 1000 nM for the first, greater than 10000 nM for the second. The first is the more potent here.

First: O=C(NCCCN1CCC(N2CCCCC2)CC1)c1ccc(-c2ccc(CO)cc2)cc1 [Compound 1148]
Second: O=C(NCCCN1CCC(N2CCCCC2)CC1)c1ccc(-c2ccc(Cl)cc2)cc1 [Compound 1021]
The EC50 of the first is higher: greater than 10000 nM for the first, 100 to 1000 nM for the second. The second is the more potent here.

First: O=C(NCCCN1CCC(N2CCCCC2)CC1)c1ccc2cc[nH]c2c1 [Compound 1008]
Second: O=C(NCCCN1CCC(N2CCCCC2)CC1)c1ccc2oc3ccccc3c2c1 [Compound 1074]
The EC50 of the first is higher: greater than 10000 nM for the first, 1000 to 10000 nM for the second. The second is the more potent here.

O=S(=O)(NCCCN1CCC(N2CCCCC2)CC1)c1ccc(-c2ccc(F)cc2)cc1 [Compound 1096] and Cc1ccc(-c2ccc(S(=O)(=O)NCCCN3CCC(N4CCCCC4)CC3)cc2)cc1 [Compound 1098] fall in the same range of EC50: 100 to 1000 nM for the first, 100 to 1000 nM for the second.

O=S(=O)(NCCCN1CCC(N2CCCCC2)CC1)c1ccc(-c2ccccc2)cc1 [Compound 1090] and O=C(NCCCN1CCC(N2CCCCC2)CC1)c1ccc(-c2ccc(F)cc2)cc1 [Compound 1020] fall in the same range of EC50: 100 to 1000 nM for the first, 100 to 1000 nM for the second.

Compared with O=C(NCCCN1CCCC1)c1cc2c(s1)CCCC2 [Compound 1004], O=C(CCCN1CCC(N2CCCCC2)CC1)Nc1ccc(-c2ccc(C(F)(F)F)cc2)cc1 [Compound 1086] is lower in EC50: greater than 10000 nM for the first, 100 to 1000 nM for the second. The second is the more potent here.

O=C(Nc1cccc(N2CCC(N3CCCCC3)CC2)c1)c1ccc(Oc2ccccc2)cc1 [Compound 1049] showed an EC50 of 100 to 1000 nM.

same assay, conditions: Hepatitis C virus, Huh7.5, 72 h

CCc1sc(NC(=O)NCc2c(C(F)(F)F)sc3c2CCN(CCN(C)C)C3)c(C(=O)OC(C)(C)C)c1C [Compound 356] and Cc1sc(NC(=O)NCc2c(C(F)(F)F)sc3c2CCN(CCN(C)C)C3)c(C(=O)OC(C)(C)C)c1C [Compound 367] cannot be ordered by EC50: less than 100 nM for the first, less than 100 nM for the second.

CC(C)(C)OC(=O)c1c(NC(=O)NCc2c(-c3cccc(C(F)(F)F)c3)sc3c2CCNC3)sc2c1CCCC2 [Compound 204] and COc1cccc(-c2sc3c(c2CNC(=O)Nc2sc4c(c2C(=O)OC(C)(C)C)CCCC4)CCNC3)c1 [Compound 228] fall in the same range of EC50: 100 to 1000 nM for the first, 100 to 1000 nM for the second.

First: Cc1sc(NC(=O)NCc2c(-c3cccc(Cl)c3)sc3c2CCN(CCN(C)C)C3)c(C(=O)OC(C)(C)C)c1C [Compound 365]
Second: Cc1sc(NC(=O)NCc2c(-c3cccc(F)c3)sc3c2CCN(CCN(C)C)C3)c(C(=O)OC(C)(C)C)c1C [Compound 366]
The EC50 of the first is higher: 100 to 1000 nM for the first, less than 100 nM for the second.

Cc1sc(NC(=O)NCc2c(C(F)(F)F)sc3c2CCNC3)c(C(=O)OC(C)(C)C)c1C [Compound 137] and CC1Cc2c(sc(NC(=O)NCc3c(C(F)(F)F)sc4c3CCNC4)c2C(=O)OC(C)(C)C)C(C)C1 (stereo not drawn) [Compound 266] cannot be ordered by EC50: less than 100 nM for the first, less than 100 nM for the second.

Compared with CN1CCc2c(sc(-n3cccc3)c2CNC(=O)Nc2sc3c(c2C(=O)OC2CCCC2)CCCC3)C1 [Compound 221], COC(=O)c1c(NC(=O)NCc2c(-n3cccc3)sc3c2CCN(C)C3)sc2c1CCCC2 [Compound 155] is higher in EC50: less than 100 nM for the first, 100 to 1000 nM for the second.

Compared with CCOC(=O)c1c(NC(=O)NCc2c(-n3cccc3)sc3c2CCN(CC)C3)sc(OC)c1C [Compound 32], CCOC(=O)c1c(NC(=O)NCc2c(-n3cccc3)sc3c2CCN(CC)C3)sc2c1CCC2 [Compound 57] is lower in EC50: 100 to 1000 nM for the first, less than 100 nM for the second.

Cc1sc(NC(=O)NCc2c(C(F)(F)F)sc3c2CCNC3)c(C(=O)OC2CCOC2)c1C (stereo not drawn) [Compound 350] and O=C(NCc1c(C(F)(F)F)sc2c1CCNC2)Nc1sc2c(c1C(=O)OC1CCOC1)CCCC2 (stereo not drawn) [Compound 326] cannot be ordered by EC50: less than 100 nM for the first, less than 100 nM for the second.

First: CCOC(=O)c1c(NC(=O)C(=O)NCc2c(C(F)(F)F)sc3c2CCNC3)sc2c1CCCC2 [Compound 120]
Second: CCOC(=O)c1c(NC(=O)NCc2c(C(F)(F)F)sc3c2CCNC3)sc2c1CC(C)CC2 (stereo not drawn) [Compound 194]
The EC50 of the first is higher: 1000 to 10000 nM for the first, less than 100 nM for the second. The second is the more potent here.

CC(C)(C)OC(=O)c1c(NC(=O)NCc2c(C(F)(F)F)sc3c2CCNC3)sc2c1CCCCC2 [Compound 245] and O=C(NCc1c(C(F)(F)F)sc2c1CCNC2)Nc1sc2c(c1C(=O)OC1CCCC1)CCCC2 [Compound 235] cannot be ordered by EC50: less than 100 nM for the first, less than 100 nM for the second.

CCOC(=O)c1c(NC(=O)NCc2c(C(F)(F)F)sc3c2CCN(C(=O)CN)C3)sc2c1CCCC2 [Compound 305] and CC(C)OC(=O)c1c(NC(=O)NCc2c(C(F)(F)F)sc3c2CCN(C)C3)sc2c1CCCC2 [Compound 169] cannot be ordered by EC50: less than 100 nM for the first, less than 100 nM for the second.

CCOC(=O)c1c(NC(=O)NCc2c(-n3cccc3)sc3c2CCN(C)C3)sc2ccccc12 [Compound 66] and CCOC(=O)c1c(NC(=O)NCc2c(-n3cccc3)sc3c2CCN(C)C3)sc2c1CCC(C)C2 (stereo not drawn) [Compound 154] cannot be ordered by EC50: less than 100 nM for the first, less than 100 nM for the second.

CCOC(=O)c1c(NC(=O)NCc2cc(CN(C)C)ccc2F)sc2c1CCCC2 [Compound 108] and CCOC(=O)c1c(NC(=O)NCc2c(-n3cccc3)sc3c2CCCN3)sc2c1CCCC2 [Compound 101] fall in the same range of EC50: 100 to 1000 nM for the first, 100 to 1000 nM for the second.

Cc1sc(NC(=O)NCc2c(-n3cccc3)sc3c2CCN(C)C3)c(C(=O)OC(C)C)c1C [Compound 196] and CCN1CCc2c(sc(-n3cccc3)c2CNC(=O)Nc2sc3c(c2C(=O)OC(C)C)CCCC3)C1 [Compound 157] cannot be ordered by EC50: less than 100 nM for the first, less than 100 nM for the second.

First: CC(C)(C)OC(=O)c1c(NC(=O)NCc2c(-c3cnc(Sc4ccccc4)nc3)sc3c2CCNC3)sc2c1CCCC2 [Compound 323]
Second: CC(C)(C)OC(=O)c1c(NC(=O)NCc2c(-c3ccc(C(=O)O)cc3F)sc3c2CCNC3)sc2c1CCCC2 [Compound 321]
The EC50 of the first is lower: 100 to 1000 nM for the first, 1000 to 10000 nM for the second.

First: CCN1CCc2c(sc(-n3cccc3)c2CNC(=O)Nc2sc3c(c2C(=O)NCCCCNC(=O)CCCCCNC(=O)OC(C)(C)C)CCCC3)C1 [Compound 92]
Second: CCNC(=O)c1c(NC(=O)NCc2c(-n3cccc3)sc3c2CCN(CC)C3)sc2c1CCCC2 [Compound 36]
The EC50 of the first is higher: 1000 to 10000 nM for the first, less than 100 nM for the second. The second is the more potent here.

O=C(NCc1c(-c2ccoc2)sc2c1CCNC2)Nc1sc2c(c1C(=O)OC1CCCC1)CCCC2 [Compound 344] and CCc1sc2c(c1CNC(=O)Nc1sc3c(c1C(=O)OC1CCCC1)CCCC3)CCNC2 [Compound 313] cannot be ordered by EC50: less than 100 nM for the first, less than 100 nM for the second.

CCc1cc(C(=O)OC(C)(C)C)c(NC(=O)NCc2c(C(F)(F)F)sc3c2CCNC3)s1 [Compound 354] and CC(C)(C)OC(=O)c1c(NC(=O)NCc2c(C(F)(F)F)sc3c2CCNC3)sc2c1CCOC2O (stereo not drawn) [Compound 320] cannot be ordered by EC50: less than 100 nM for the first, less than 100 nM for the second.

CN1CCc2c(sc(C(F)(F)F)c2CNC(=O)Nc2sc3c(c2C(=O)OC(C)(C)C)CCC3)C1 [Compound 278] and CN1CCc2c(sc(Br)c2CNC(=O)Nc2sc3c(c2C(=O)OC(C)(C)C)CCC3)C1 [Compound 299] cannot be ordered by EC50: less than 100 nM for the first, less than 100 nM for the second.

CCN1CCc2c(sc(-n3cccc3)c2CNC(=O)Nc2sc3c(c2C(=O)OC(C)(C)C)CCC3)C1 [Compound 114] and CC(C)(C)OC(=O)c1c(NC(=O)NCc2c(-n3cccc3)sc3c2CCN(CC(F)(F)F)C3)sc2c1CCCC2 [Compound 240] cannot be ordered by EC50: less than 100 nM for the first, less than 100 nM for the second.

Compared with CCN1CCc2c(sc(Br)c2CNC(=O)Nc2sc3c(c2C(=O)OC(C)(C)C)CCCCC3)C1 [Compound 280], CCN1CCc2c(sc(-n3cccc3)c2C(C)(C)NC(=O)Nc2sc3c(c2C(=O)OC(C)(C)C)CCCC3)C1 [Compound 202] is higher in EC50: less than 100 nM for the first, 1000 to 10000 nM for the second. The first is the more potent here.

First: CCN1CCc2c(sc(-n3cccc3)c2CNC(=O)Nc2sc3c(c2C#N)CCCC3)C1 [Compound 5]
Second: CCN1CCc2c(sc(-n3cccc3)c2CNC(=O)Nc2sc3c(c2-c2nnc(C)o2)CCCC3)C1 [Compound 43]
The EC50 of the first is higher: greater than 10000 nM for the first, less than 100 nM for the second. The second is the more potent here.

First: CCc1sc(NC(=O)NCc2c(-n3cccc3)sc3c2CCNC3)c(C(=O)OC(C)(C)C)c1C [Compound 318]
Second: CCc1c(C)sc(NC(=O)NCc2c(-n3cccc3)sc3c2CCNC3)c1C(=O)OC(C)(C)C [Compound 269]
The EC50 of the first is higher: 100 to 1000 nM for the first, less than 100 nM for the second.

First: CCOC(=O)c1c(NC(=O)NCc2c(-n3cccc3)sc3c2CCNC3)sc2c1CCC2 [Compound 112]
Second: CCOC(=O)c1c(NC(=O)NCc2c(N3CCCC3)sc3c2CCNC3)sc2c1CCCC2 [Compound 125]
The EC50 of the first is lower: less than 100 nM for the first, 100 to 1000 nM for the second.

Cc1sc(NC(=O)NCc2c(Br)sc3c2CCNC3)c(C(=O)OC(C)C)c1C [Compound 216] and CCOC(=O)c1c(NC(=O)NCc2c(C(F)(F)F)sc3c2CCNC3)sc2c1CCC(F)(F)C2 [Compound 219] cannot be ordered by EC50: less than 100 nM for the first, less than 100 nM for the second.

Compared with CCOC(=O)c1cc(-c2ccccc2)sc1NC(=O)NCc1c(-n2cccc2)sc2c1CCN(CC)C2 [Compound 40], CCOC(=O)c1c(NC(=O)NCc2c(-n3cccc3)sc3c2CCN(CC)C3)sc(C)c1-c1ccc(F)cc1 [Compound 42] is lower in EC50: 100 to 1000 nM for the first, less than 100 nM for the second.

First: O=C(NCc1c(-n2cccc2)sc2c1CCNC2)Nc1sc2c(c1C(=O)N1CCOCC1)CCCC2 [Compound 76]
Second: CCOC(=O)c1c(NC(=O)NCc2c(-n3cccc3)sc3c2CCN(Cc2ccccc2)C3)sc2c1CCCC2 [Compound 7]
The EC50 of the first is higher: 100 to 1000 nM for the first, less than 100 nM for the second. The second is the more potent here.

Source: US9809602B2, “Compounds for treating viral infections” (INSTITUT PASTEUR KOREA, priority 2014, dated 2017)
